We go through 33 compounds from the METLIN SMRT retention time set (Domingo-Almenara et al. 2019).

This series is described as follows: gradient 5% acetonitrile 3 min, to 50% in 2 min, to 85% in 15 min, held 3 min, 100 µL/min. The settings on record: column: Zorbax Extend-C18 2.1 x 50 mm; eluents: water / acetonitrile, 0.1% formic acid. The method in brief:
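Data were gathered over 3 months by HPLC coupled to a quadrupole time-of-flight mass spectrometer, operated in positive and negative ionization mode. Mixtures of ~100 pure standards ran on a Zorbax Extend-C18 column (2.1 × 50 mm, 1.8 μm) at 100 μL/min, with water and acetonitrile each containing 0.1% formic acid and dead and dwell volumes of 40 μL and 900 μL. Retention time was read from adduct peaks picked by computer and checked manually.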
In the case of `Cc1cc(N(C)C)n2nc(CN3CCN(c4ccccc4Cl)CC3)nc2n1`, the RP-LC retention time came to 627 s. The figure for `CCOC(=O)c1nc2ccccc2nc1N1CCN(c2ccccn2)CC1` is 666 s; for `O=C(NC1CCCCCC1)c1cn(-c2ccc(-c3nc(C4CC4)no3)cn2)cn1` it is 1010 s; for `Cn1cc(-c2nc(C(=O)NCc3ccccc3Cl)cs2)c2cccnc21` it is 989 s. The compound `O=C(C1COc2ccccc2O1)N(CCc1cccs1)Cc1ccco1` (stereo not drawn) showed an RP-LC retention time of 1020 s. The figure for `CCCCN1C(=O)C(CC(=O)N2CCOCC2)Sc2ncccc21` (stereo not drawn) is 708 s.

`COc1cccc(N2CCN(CC(O)c3ccc(C)cc3)CC2)c1` (stereo not drawn): the RP-LC retention time is 677 s. Under `COc1ccccc1-c1noc(C2CCCN2C(=O)c2ccsc2)n1` (stereo not drawn) stands 802 s; under `O=C(Cn1ccc2sccc2c1=O)NCc1ccccc1`, 696 s. The figure for `CCN(CC)C(=O)c1cnc2snc(C)c2c1N1CCC(C(=O)Nc2ccc(Br)c(C)c2)CC1` is 1080 s. As for `COc1cccc(-c2nc(CN3CCCC3=O)no2)c1`, the RP-LC retention time was determined as 697 s. Under `COc1ccc(C)cc1NC(=O)C1CCN(S(=O)(=O)c2cn(C)cn2)CC1` stands 666 s. The figure for `Cc1cccc(NC(=O)Nc2ccc3c(c2)CCN3S(=O)(=O)c2ccccc2)c1` is 994 s. Under `COCc1cn(C2CN(C(=O)c3cc(C)nn3C)C2)nn1` stands 581 s. Compound `Cc1cc(OCC(=O)N[C@@H](CC(C)C)C(=O)O)c2c3c(c(=O)oc2c1)CCCC3` registered an RP-LC retention time of 894 s. The compound `CCN1CCN(C2CCN(C(=O)c3cc(C)cc(C)c3)CC2)C1=O` returned an RP-LC retention time of 728 s.

In turn, `CCC(CN1CCOCC1)NC(=O)C1CCN(c2ccc(-c3cccs3)nn2)CC1` (stereo not drawn) had an RP-LC retention time of 571 s. Consider `COc1cccc(-c2noc(Cn3ccn(-c4ccccc4)c(=O)c3=O)n2)c1`, for which the RP-LC retention time was 812 s. As to `COc1ccc(Nc2c(-c3ccc(C)cc3)nc3ncccn23)cc1OC`, the RP-LC retention time amounted to 683 s.

For the compound `CCOc1ccc(C(=O)NCc2c(C)noc2C)cc1OCC`, the RP-LC retention time was 757 s. Under `Cc1oc(-c2[nH]ncc2C(=O)N(C)C)cc1S(=O)(=O)Nc1cc(F)cc(F)c1` stands 890 s; under `CCn1cc2c(n1)c(=O)n(Cc1ccccc1)c(=O)n2CC(=O)NCc1ccccc1Br`, 890 s; under `Cc1ccc(NC(=O)CSc2nnc3c4cc(-c5ccc(Cl)cc5)nn4ccn23)cc1F`, 1010 s.

`CCOc1ccc(-c2noc(CN3N=NC4C(=O)N(c5ccc(OC)cc5)C(=O)C43)n2)cc1OC` (stereo not drawn): the RP-LC retention time is 924 s.

With `Cc1ccn2cc(-c3ccc(NC(=O)c4ccccc4Cl)cc3)nc2n1`, the RP-LC retention time was found to be 652 s.

`COc1cc(NC(=O)N2CCCC(C)(C(=O)NCc3ccc(F)cc3)C2)cc(OC)c1OC` (stereo not drawn) yielded an RP-LC retention time of 778 s. `Cc1cc(NC(=O)C2CCN(C(=O)COc3ccccc3F)CC2)no1`: the RP-LC retention time amounted to 696 s.

Take `COc1ccc2c(c1)c(CN1CCOCCNC(=O)CC1)cn2C`: the RP-LC retention time is 598 s. The figure for `Cc1nnc(NC(=O)c2csc(Nc3ccc(OC(F)F)cc3)n2)s1` is 781 s.

Take `O=C(CN1C(=O)COc2ccc(C(=O)N3CCCCC3)cc21)N1CCc2ccccc2C1`: the RP-LC retention time was 788 s.

The compound `O=C(NCc1ccc(F)cc1)N1CCCN(c2nc3cccnc3s2)CC1` gave an RP-LC retention time of 687 s. Under `CCN1CCC(N(Cc2cccs2)C(=O)Nc2ccc(OC)c(OC)c2)CC1` stands 604 s; under `Cc1ccc(C)c(NC(=O)N2CCC(N3CCN(Cc4cccc(F)c4)C(=O)C3=O)CC2)c1`, 767 s.
